The results in this text go back to paper PMC11109052, “Metabolism characterization and toxicity of N-hydap, a marine candidate drug for lung cancer therapy by LC–MS method” (Natural Products and Bioprospecting, 2024).

As usually defined, the AUC(0-t) is the area under the concentration-time curve up to a stated or last time point. By Cmax is commonly meant the highest concentration seen after dosing. As a reminder, the Tmax is the time at which the peak concentration occurs. A word on the bioavailability: it is the share of a dose that reaches the circulation, judged against a reference dose that is usually intravenous.

In one data set the test system is Ugt1a9. The data set can be described thus: Real-time PCR mRNA level after 7 days gavage: Ugt1a9. The class given is in vivo, mice. Set-up: key to UGT1A9 mNA expression: ↑: up-regulation; ↓: down-regulation; –: no change. As for the experimental part:
Mice were randomly divided into four groups, with eight animals in each group. The mice received oral pretreatment with N-hydap for 7 days at doses of 2, 5, and 10 mg/kg/day, which were considered as the low dose, medium dose, and high dose, respectively. Correspondingly, the control group received PBS. On the 8th day, the liver and kidneys were removed, and organs from eight mice per group were combined to prepare MLMs and MKMs using the detailed procedures above. Subsequently, we determined the activity of CYP and UGT enzymes by specific substrate metabolized with MLMs (0.5 mg/mL) and MKMs (0.2 mg/mL) in vitro. Specifically, the following selective substrates were used for the respective enzymes: PH (1 μM) for CYP1A2, DIC (1 μM) for CYP2C9, MP (90 μM) for CYP2C19, DM (1 μM) for CYP2D6, CZX (10 μM) for CYP2E1, Tes (1 μM) for CYP3A4, SN38 (1 μM) for UGT1A1, CACD (100 μM) for UGT1A3, Sero (20 μM) for UGT1A6, and Prop (1 μM) for UGT1A9. All substrates were dissolved in methanol or DMSO. The incubation procedure was carried out as mentioned above, and the reaction was terminated with VER (20 ng/mL) in ESI+ mode and CLP (200 ng/mL) in ESI− mode. In the ex vivo experiments, the activity of enzymes was measured by quantifying the production of various metabolites (nM/mg protein/min). The metabolites and their corresponding enzymes are as follows: APAP from PH, 4-OH-DIC from DIC, 4-OH-MP from MP, DXO from DM, 6-OH-CZX from CZX, 6-OH-Tes from Tes, SN38-G from SN38, CACD-G from CACD, Sero-G from Sero, Prop-G from Prop. The measurements were performed using multiple reaction monitoring (MRM) transitions, which are specific mass spectrometry transitions used for quantification. […]
Total RNA from liver and kidney samples taken after 7 days of N-hydap gavage was extracted using the Animal Total RNA Isolation Kit (Foregene, Chengdu, Sichuan, China) following the manufacturer’s instructions. The concentrations of total RNA were determined by a nucleic acid concentration tester at 260/280 nm. […]

Data set [1] in a line: Pharmacokinetics studies in mice (plasma). The class given is in vivo. As for the experimental part:
Mice were fasted for 12 h with access to water before drug administration. N-Hydap was dissolved in a solution containing 50% methanol and water. Before administration, the drug was diluted with PBS to achieve concentrations of 5 mg/kg and 2 mg/kg for gastric gavage and tail vein administration, respectively. Blood samples (120 μL) were collected from the orbital venous plexus at 2, 5, 10, 15, 30, 60, 90, 120, 180, and 240 min after N-hydap administration. The blood samples were collected into heparinized micro-centrifuge tubes and immediately centrifuged at 8000 rpm for 5 min at 4 °C. Plasma samples were prepared by adding an internal standard (IS) solution, Tes to the samples, followed by vortexing. The mixtures were then centrifuged at 4 °C and 13,000 rpm for 15 min. The resulting supernatant was dried under vacuum for 3–4 h, and the dry powder was reconstituted with a solution of 50% methanol and water. Finally, the plasma samples were analyzed using LC–MS, following the previously described method.
DAS 2.0 was used to calculate pharmacokinetic parameters using the standard non-compartmental method. All results were presented as mean ± standard deviation and significant differences were analyzed using One-way ANOVA by GraphPad Prism 8. Statistical significance was defined as p < 0.05.

Where [2] appears, read: mouse, plasma, iv, mice, tail vein injection 2 mg/kg.
[3] abbreviates: mouse, plasma, mice, oral administration 5 mg/kg.

Where two headings read alike, the source gives them in different places.

As to `CC1CCC2C(C=CC(C)C2C(=O)c2c(O)c(C3(O)CCC(O)C4OC43)cn(O)c2=O)C1` (stereo not shown) [N-hydap, N-Hydroxyapiosporamide], the “UGT1A9 mNA expression” value in the data set with Ugt1a9 (Kidney) and in the data set on Ugt1a9 (Liver) was “–” each time. Moreover, the “mRNA levels of Ugt1a9” value in the data set with Ugt1a9 (mice, 2, 5, 10 mg/kg p.o. 7 days) is recorded as “No significant changes”. Also, the “CL, experimental results” value in data set [1] (Table 4 experimental column) is “High clearance”. The CLz/F in data set [1] (mice, tail vein injection 2 mg/kg) was determined as 31 ± 1 mL/min/kg. For the same compound, the AUC(0-t) in data set [1] (setting [2]) is 2.36 µM·h; in data set [1] (setting [3]), 1.41 µM·h. The Cmax was found to be 4.79 ± 0.726 µM in data set [1] (setting [2]) and 2.06 ± 0.951 µM in data set [1] (setting [3]). Moreover, the Tmax in data set [1] (setting [2]) is 3 min; in data set [1] (setting [3]) it was 15 min. The half-life in data set [1] (mouse, plasma, iv, mice, tail vein injection 2 mg/kg, read-out: t1/2z) was 61.2 ± 14.2 min; in data set [1] (mouse, plasma, Table 4 experimental column, read-out: T1/2, experimental results) it was less than 60 min; in data set [1] (mouse, plasma, mice, oral administration 5 mg/kg, read-out: t1/2z), 57.6 ± 12.7 min. The bioavailability in data set [1] (mouse, plasma, mice, oral 5 mg/kg vs tail vein 2 mg/kg, read-out: F (oral bioavailability)) worked out at 24%. In addition, in data set [1] (mouse, plasma, mice, oral administration 5 mg/kg, read-out: CLz/F), the CL/F is 134 ± 39 mL/min/kg.
